Experimental data taken from PubChem BioAssay AID1963982 (Molecular Pharmacology Branch, DTP, NCI, 2024).
Values belong to the compound of their own block, whether it stands above or below them.

System: 313798-341-R-J2-PDC spheroids, viability
Assay: Anticancer human tumor 313798-341-R-J2-PDC patient-derived cervical squamous cell carcinoma cell line growth inhibition [PI3K]
Conditions: spheroids with HUVEC and MSC; for IC50: curve of first compound; for viability, T/C: stronger effect = lower value
Summary of the method: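 High-throughput combination screen: PI3K inhibitors crossed with targeted small molecules on complex spheroids of tumor cells, HUVEC and MSCs at 37 degrees C, 5% CO2. Top concentration was at or near clinical Cmax (otherwise 10 microM), with half-log decrements.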

[1] = second compound 0.00316 µM, first compound 0.0316 µM
[2] = second compound 0.00316 µM, first compound 0.1 µM
[3] = second compound 0.00316 µM, first compound 0.316 µM
[4] = second compound 0.00316 µM, first compound 1 µM
[5] = second compound 0.00316 µM, first compound 3.16 µM
[6] = second compound 0.00316 µM, first compound 10 µM
[7] = second compound 0.01 µM, first compound 0.0316 µM
[8] = second compound 0.01 µM, first compound 0.1 µM
[9] = second compound 0.01 µM, first compound 0.316 µM
[10] = second compound 0.01 µM, first compound 1 µM
[11] = second compound 0.01 µM, first compound 3.16 µM
[12] = second compound 0.01 µM, first compound 10 µM
[13] = second compound 0.0316 µM, first compound 0.0316 µM
[14] = second compound 0.0316 µM, first compound 0.1 µM
[15] = second compound 0.0316 µM, first compound 0.316 µM
[16] = second compound 0.0316 µM, first compound 1 µM
[17] = second compound 0.0316 µM, first compound 3.16 µM
[18] = second compound 0.0316 µM, first compound 10 µM
[19] = second compound 0.1 µM, first compound 0.0316 µM
[20] = second compound 0.1 µM, first compound 0.1 µM
[21] = second compound 0.1 µM, first compound 0.316 µM
[22] = second compound 0.1 µM, first compound 1 µM
[23] = second compound 0.1 µM, first compound 3.16 µM
[24] = second compound 0.1 µM, first compound 10 µM
[25] = second compound 0.316 µM, first compound 0.0316 µM
[26] = second compound 0.316 µM, first compound 0.1 µM
[27] = second compound 0.316 µM, first compound 0.316 µM
[28] = second compound 0.316 µM, first compound 1 µM
[29] = second compound 0.316 µM, first compound 3.16 µM
[30] = second compound 0.316 µM, first compound 10 µM
[31] = second compound 1 µM, first compound 0.0316 µM
[32] = second compound 1 µM, first compound 0.1 µM
[33] = second compound 1 µM, first compound 0.316 µM
[34] = second compound 1 µM, first compound 1 µM
[35] = second compound 1 µM, first compound 3.16 µM
[36] = second compound 1 µM, first compound 10 µM
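Also: spheroids exposed to compounds for seven days.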
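For viability, T/C in this document: 100% = DMSO vehicle control viability.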

IC50 (second compound 0.00316 µM): > 10000 nM
IC50 (second compound 0.01 µM): > 10000 nM
IC50 (second compound 0.0316 µM): > 10000 nM
IC50 (second compound 0.1 µM): < 31.6 nM
IC50 (second compound 0.316 µM): < 31.6 nM
IC50 (second compound 1 µM): < 31.6 nM
Compound: CC1(C)CCC(CN2CCN(c3ccc(C(=O)NS(=O)(=O)c4ccc(NCC5CCOCC5)c([N+](=O)[O-])c4)c(Oc4cnc5[nH]ccc5c4)c3)CC2)=C(c2ccc(Cl)cc2)C1 + COc1c(OCCCN2CCOCC2)ccc2c3n(c(=NC(=O)c4cnc(N)nc4)nc12)CCN3
viability, T/C [1]: 98.3%
viability, T/C [2]: 107%
viability, T/C [3]: 113%
viability, T/C [4]: 101%
viability, T/C [5]: 87.7%
viability, T/C [6]: 102%
viability, T/C [7]: 105%
viability, T/C [8]: 110%
viability, T/C [9]: 88.7%
viability, T/C [10]: 96.5%
viability, T/C [11]: 66.1%
viability, T/C [12]: 95.2%
viability, T/C [13]: 70%
viability, T/C [14]: 77.1%
viability, T/C [15]: 69.3%
viability, T/C [16]: 75.8%
viability, T/C [17]: 47.4%
viability, T/C [18]: 73.2%
viability, T/C [19]: 44.4%
viability, T/C [20]: 41.4%
viability, T/C [21]: 40.3%
viability, T/C [22]: 37.8%
viability, T/C [23]: 35.1%
viability, T/C [24]: 41.2%
viability, T/C [25]: 14.6%
viability, T/C [26]: 14.6%
viability, T/C [27]: 16.5%
viability, T/C [28]: 14.2%
viability, T/C [29]: 13.3%
viability, T/C [30]: 15%
viability, T/C [31]: 9.63%
viability, T/C [32]: 9.06%
viability, T/C [33]: 11.1%
viability, T/C [34]: 10.6%
viability, T/C [35]: 12%
viability, T/C [36]: 11.2%

IC50 (second compound 0.00316 µM): > 10000 nM
IC50 (second compound 0.01 µM): > 10000 nM
IC50 (second compound 0.0316 µM): > 10000 nM
IC50 (second compound 0.1 µM): 34.9 nM
IC50 (second compound 0.316 µM): < 31.6 nM
IC50 (second compound 1 µM): < 31.6 nM
Compound: C[C@@H](NC(=O)c1ncnc(N)c1Cl)c1ncc(C(=O)Nc2cc(C(F)(F)F)c(Cl)cn2)s1 + COc1c(OCCCN2CCOCC2)ccc2c3n(c(=NC(=O)c4cnc(N)nc4)nc12)CCN3
viability, T/C [1]: 99.2%
viability, T/C [2]: 99%
viability, T/C [3]: 102%
viability, T/C [4]: 107%
viability, T/C [5]: 114%
viability, T/C [6]: 111%
viability, T/C [7]: 92.4%
viability, T/C [8]: 95.5%
viability, T/C [9]: 88.2%
viability, T/C [10]: 104%
viability, T/C [11]: 104%
viability, T/C [12]: 103%
viability, T/C [13]: 73.6%
viability, T/C [14]: 84.1%
viability, T/C [15]: 84.4%
viability, T/C [16]: 89.9%
viability, T/C [17]: 97.2%
viability, T/C [18]: 96.9%
viability, T/C [19]: 54%
viability, T/C [20]: 45.5%
viability, T/C [21]: 46.5%
viability, T/C [22]: 48%
viability, T/C [23]: 50.5%
viability, T/C [24]: 46.4%
viability, T/C [25]: 17.9%
viability, T/C [26]: 20.6%
viability, T/C [27]: 19.9%
viability, T/C [28]: 19.6%
viability, T/C [29]: 23.1%
viability, T/C [30]: 16.5%
viability, T/C [31]: 11.7%
viability, T/C [32]: 12.9%
viability, T/C [33]: 13.2%
viability, T/C [34]: 13.3%
viability, T/C [35]: 14.5%
viability, T/C [36]: 12.5%
